These results are taken from patent publication US20230257396A1, “MACROCYCLES AND THEIR USE” (BLOSSOMHILL THERAPEUTICS, INC., priority 2020, published 2023).

Holding throughout (experiment): KINOMEscan kinase binding assay (Eurofins/DiscoveRx), % Ctrl
Common to all, as to settings: 1 μM

Assay [1] addresses T1, kinases (Homo sapiens, UniProt P16234).
T1 construct: purchased Eurofins/DiscoveRx; host or cells: E. coli BL21-derived host (T7 phage display) for most kinases; HEK-293 for the rest
In outline: (§1)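 Competition binding, 1 h RT: phage-tagged or HEK-293-expressed DNA-tagged kinase + immobilized ligand + compound. Eluate kinase by qPCR. % Ctrl = (test − positive ctrl)/(negative ctrl − positive ctrl) × 100; lower means stronger binding.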

In assay [2] the target is T2, kinases (Homo sapiens, UniProt P07949, M918T).
T2 construct: purchased Eurofins/DiscoveRx; host or cells: E. coli BL21-derived host (T7 phage display) for most kinases; HEK-293 for the rest
T2 sequence (P07949 29-1114 M918T): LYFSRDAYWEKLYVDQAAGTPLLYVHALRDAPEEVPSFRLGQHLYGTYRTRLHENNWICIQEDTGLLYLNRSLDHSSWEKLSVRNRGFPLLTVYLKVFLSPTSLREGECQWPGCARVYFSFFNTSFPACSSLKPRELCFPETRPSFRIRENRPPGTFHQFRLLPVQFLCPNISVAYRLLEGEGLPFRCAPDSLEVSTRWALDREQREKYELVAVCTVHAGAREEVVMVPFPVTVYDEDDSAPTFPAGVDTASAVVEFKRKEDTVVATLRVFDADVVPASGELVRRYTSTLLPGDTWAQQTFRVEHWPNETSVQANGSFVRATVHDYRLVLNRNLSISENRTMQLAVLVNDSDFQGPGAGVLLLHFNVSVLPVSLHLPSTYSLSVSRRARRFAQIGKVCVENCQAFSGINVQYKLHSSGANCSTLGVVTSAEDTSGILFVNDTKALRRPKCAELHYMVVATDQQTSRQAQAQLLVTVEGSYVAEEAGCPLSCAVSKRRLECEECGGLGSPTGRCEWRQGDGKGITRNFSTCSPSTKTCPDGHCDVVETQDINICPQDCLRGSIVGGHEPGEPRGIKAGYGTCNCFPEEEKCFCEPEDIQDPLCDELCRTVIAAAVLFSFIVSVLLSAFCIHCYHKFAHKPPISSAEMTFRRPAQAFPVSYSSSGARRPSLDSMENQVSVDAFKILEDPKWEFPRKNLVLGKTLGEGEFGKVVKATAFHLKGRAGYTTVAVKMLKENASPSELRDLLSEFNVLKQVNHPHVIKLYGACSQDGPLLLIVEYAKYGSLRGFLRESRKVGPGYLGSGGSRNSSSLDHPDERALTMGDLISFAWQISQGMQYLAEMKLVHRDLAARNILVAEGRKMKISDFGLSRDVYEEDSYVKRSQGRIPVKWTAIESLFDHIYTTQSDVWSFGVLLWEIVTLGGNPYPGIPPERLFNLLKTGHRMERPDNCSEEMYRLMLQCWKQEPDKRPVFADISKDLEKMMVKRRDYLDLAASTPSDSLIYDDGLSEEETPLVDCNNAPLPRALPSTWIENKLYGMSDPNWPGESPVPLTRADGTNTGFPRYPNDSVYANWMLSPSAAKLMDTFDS
In outline: as §1

Assay [3] addresses T3, kinases (Homo sapiens, UniProt P00519, H396P).
T3 construct: purchased Eurofins/DiscoveRx; host or cells: E. coli BL21-derived host (T7 phage display) for most kinases; HEK-293 for the rest
An outline of the steps: as §1

The target of assay [4] is T4, kinases (Homo sapiens, UniProt P36888, R834Q).
T4 construct: purchased Eurofins/DiscoveRx; host or cells: E. coli BL21-derived host (T7 phage display) for most kinases; HEK-293 for the rest
T4 sequence (P36888 27-993 R834Q): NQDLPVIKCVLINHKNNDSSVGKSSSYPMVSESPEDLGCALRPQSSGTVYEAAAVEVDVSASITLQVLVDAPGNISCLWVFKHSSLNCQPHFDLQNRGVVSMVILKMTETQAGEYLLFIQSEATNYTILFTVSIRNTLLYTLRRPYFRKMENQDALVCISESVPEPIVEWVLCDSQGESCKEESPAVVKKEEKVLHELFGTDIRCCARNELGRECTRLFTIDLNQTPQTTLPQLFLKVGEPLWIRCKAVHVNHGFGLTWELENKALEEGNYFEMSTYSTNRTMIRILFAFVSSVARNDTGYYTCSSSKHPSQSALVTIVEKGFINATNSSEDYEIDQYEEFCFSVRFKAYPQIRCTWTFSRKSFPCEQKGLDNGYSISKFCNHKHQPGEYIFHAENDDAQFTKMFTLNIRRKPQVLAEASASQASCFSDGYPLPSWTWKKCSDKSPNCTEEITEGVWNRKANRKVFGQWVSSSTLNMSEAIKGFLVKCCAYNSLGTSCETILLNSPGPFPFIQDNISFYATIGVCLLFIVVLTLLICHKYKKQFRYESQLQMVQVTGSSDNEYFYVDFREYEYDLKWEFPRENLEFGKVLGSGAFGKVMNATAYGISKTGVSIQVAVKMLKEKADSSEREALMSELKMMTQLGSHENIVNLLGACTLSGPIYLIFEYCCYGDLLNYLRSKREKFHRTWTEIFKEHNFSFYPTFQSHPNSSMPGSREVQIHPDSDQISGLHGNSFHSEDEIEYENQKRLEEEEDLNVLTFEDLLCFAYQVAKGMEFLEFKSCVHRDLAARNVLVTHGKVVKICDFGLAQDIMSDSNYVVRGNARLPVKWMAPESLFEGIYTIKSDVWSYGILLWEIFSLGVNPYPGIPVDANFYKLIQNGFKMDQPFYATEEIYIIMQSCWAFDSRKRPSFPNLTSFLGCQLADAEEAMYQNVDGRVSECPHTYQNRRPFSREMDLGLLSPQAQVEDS
An outline of the steps:
as §1

The target of assay [5] is T5, kinases (Homo sapiens, UniProt P00533, G719C).
T5 construct: purchased Eurofins/DiscoveRx; host or cells: E. coli BL21-derived host (T7 phage display) for most kinases; HEK-293 for the rest
An outline of the steps: as §1

Assay [6] addresses T6, kinases (Homo sapiens, UniProt P00519).
T6 construct: purchased Eurofins/DiscoveRx; host or cells: E. coli BL21-derived host (T7 phage display) for most kinases; HEK-293 for the rest
An outline of the steps:
as §1

For assay [7], the target named is T7, kinases (Homo sapiens, UniProt P00519, F317L).
T7 construct: purchased Eurofins/DiscoveRx; host or cells: E. coli BL21-derived host (T7 phage display) for most kinases; HEK-293 for the rest
In outline:
as §1

The target of assay [8] is T8, kinases (Homo sapiens, UniProt P10721, L576P).
T8 construct: purchased Eurofins/DiscoveRx; host or cells: E. coli BL21-derived host (T7 phage display) for most kinases; HEK-293 for the rest
T8 sequence (P10721 26-976 L576P): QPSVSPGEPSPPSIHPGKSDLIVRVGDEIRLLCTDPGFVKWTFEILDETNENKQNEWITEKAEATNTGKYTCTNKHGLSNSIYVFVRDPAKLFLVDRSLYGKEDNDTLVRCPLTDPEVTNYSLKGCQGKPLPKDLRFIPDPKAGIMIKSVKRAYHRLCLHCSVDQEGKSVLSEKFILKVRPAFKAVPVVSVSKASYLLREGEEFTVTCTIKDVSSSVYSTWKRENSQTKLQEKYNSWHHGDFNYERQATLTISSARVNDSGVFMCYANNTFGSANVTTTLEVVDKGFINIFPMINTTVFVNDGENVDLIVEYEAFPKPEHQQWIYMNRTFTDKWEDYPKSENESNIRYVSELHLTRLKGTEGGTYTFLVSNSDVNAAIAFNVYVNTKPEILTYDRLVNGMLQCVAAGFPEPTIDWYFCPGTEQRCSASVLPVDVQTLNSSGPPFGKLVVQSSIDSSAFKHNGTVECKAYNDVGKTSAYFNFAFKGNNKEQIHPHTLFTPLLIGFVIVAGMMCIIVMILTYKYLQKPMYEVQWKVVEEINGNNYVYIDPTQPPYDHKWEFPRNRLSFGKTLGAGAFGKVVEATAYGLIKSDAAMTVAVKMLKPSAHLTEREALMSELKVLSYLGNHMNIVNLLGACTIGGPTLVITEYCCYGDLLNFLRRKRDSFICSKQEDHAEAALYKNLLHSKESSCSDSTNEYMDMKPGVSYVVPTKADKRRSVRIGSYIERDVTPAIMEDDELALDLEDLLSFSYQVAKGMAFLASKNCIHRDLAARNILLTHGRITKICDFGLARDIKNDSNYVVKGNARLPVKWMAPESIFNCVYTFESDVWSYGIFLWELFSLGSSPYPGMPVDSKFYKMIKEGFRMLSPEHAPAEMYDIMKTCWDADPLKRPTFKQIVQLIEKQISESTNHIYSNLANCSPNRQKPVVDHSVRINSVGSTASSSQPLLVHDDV
An outline of the steps:
as §1

T1 sequence (P16234 24-1089): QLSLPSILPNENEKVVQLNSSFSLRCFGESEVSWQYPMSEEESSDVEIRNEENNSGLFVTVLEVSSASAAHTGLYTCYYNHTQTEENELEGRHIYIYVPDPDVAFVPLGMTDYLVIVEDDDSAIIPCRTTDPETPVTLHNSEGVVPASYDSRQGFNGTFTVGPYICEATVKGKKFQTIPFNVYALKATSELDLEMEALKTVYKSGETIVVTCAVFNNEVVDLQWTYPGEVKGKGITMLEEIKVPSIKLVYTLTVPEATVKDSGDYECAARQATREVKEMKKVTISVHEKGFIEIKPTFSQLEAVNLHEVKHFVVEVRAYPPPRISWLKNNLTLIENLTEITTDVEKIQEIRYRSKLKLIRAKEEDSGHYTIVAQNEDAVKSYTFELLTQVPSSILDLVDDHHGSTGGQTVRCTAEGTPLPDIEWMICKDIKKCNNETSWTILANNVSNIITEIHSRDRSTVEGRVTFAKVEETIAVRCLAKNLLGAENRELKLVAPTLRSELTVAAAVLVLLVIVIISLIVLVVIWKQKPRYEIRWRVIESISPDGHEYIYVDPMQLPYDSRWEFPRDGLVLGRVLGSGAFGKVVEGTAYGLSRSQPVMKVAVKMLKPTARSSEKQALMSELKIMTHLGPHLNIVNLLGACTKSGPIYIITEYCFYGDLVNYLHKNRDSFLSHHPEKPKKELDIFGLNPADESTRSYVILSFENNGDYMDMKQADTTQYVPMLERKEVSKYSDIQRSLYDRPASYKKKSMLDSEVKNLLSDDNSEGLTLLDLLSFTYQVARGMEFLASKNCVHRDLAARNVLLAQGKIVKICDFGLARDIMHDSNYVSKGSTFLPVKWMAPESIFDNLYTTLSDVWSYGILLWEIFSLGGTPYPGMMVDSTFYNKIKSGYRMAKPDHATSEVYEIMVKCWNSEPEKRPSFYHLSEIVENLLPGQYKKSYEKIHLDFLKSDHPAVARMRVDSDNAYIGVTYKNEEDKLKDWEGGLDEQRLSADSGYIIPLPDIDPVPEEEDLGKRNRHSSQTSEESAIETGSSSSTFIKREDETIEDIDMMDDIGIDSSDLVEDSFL

With `Cc1cc2c([nH]1)/C=C1\C(=O)Nc3ccc(cc31)-c1c(noc1C(C)C)COCCN(C)C2=O` [Ex. 161, [3a(4)Z]-9-methyl-16-(propan-2-yl)-10,11-dihydro-2H,13H-1,17-(ethanediylidene)[1,2]oxazolo[4,3-m]dipyrrolo[3,2-f:3′,4′-i][1,4]oxazacyclopentadecine-3,8(5H,9H)-dione], the “% Ctrl, PDGFRA” value at kinases [1] (target PDGFRA) turned out to be 100 % Ctrl. The “% Ctrl, RET(M918T)” value at kinases [2] (target RET(M918T)) amounted to 92 % Ctrl. The “% Ctrl, ABL1(H396P)-nonphosphorylated” value at kinases [3] (target ABL1(H396P)-nonphosphorylated) is given as 91 % Ctrl. Further, the “% Ctrl, ABL1(H396P)-phosphorylated” value on kinases [3] (target ABL1(H396P)-phosphorylated) turned out to be 100 % Ctrl. Also, the “% Ctrl, FLT3(R834Q)” value at kinases [4] (target FLT3(R834Q)) is 100 % Ctrl. Further, at kinases [5] (target EGFR(G719C)), the “% Ctrl, EGFR(G719C)” value is 89 % Ctrl. For the same molecule, the “% Ctrl, ABL1-nonphosphorylated” value at kinases [6] (target ABL1-nonphosphorylated) came out at 100 % Ctrl. Also, at kinases [6] (target ABL1-phosphorylated), the “% Ctrl, ABL1-phosphorylated” value stood at 97 % Ctrl. Besides, the “% Ctrl, ABL1(F317L)-nonphosphorylated” value at kinases [7] (target ABL1(F317L)-nonphosphorylated) worked out at 93 % Ctrl. Also, the “% Ctrl, ABL1(F317L)-phosphorylated” value on kinases [7] (target ABL1(F317L)-phosphorylated) is reported as 94 % Ctrl. The “% Ctrl, KIT(L576P)” value on kinases [8] (target KIT(L576P)) worked out at 100 % Ctrl.

As to `Cc1cc2c([nH]1)/C=C1\C(=O)Nc3ccc(cc31)-c1ccnn1CCNCCNC2=O` [Ex. 43, [19a(20)Z]-2-methyl-5,6,7,8,9,10-hexahydro-15,17-(ethanediylidene)pyrazolo[1,5-g]dipyrrolo[3,4-k:2′,3′-n][1,4,7]triazacyclohexadecine-4,19(1H,18H)-dione], on kinases [1] (PDGFRA), the “% Ctrl, PDGFRA” value is recorded as 80 % Ctrl. Also, the “% Ctrl, RET(M918T)” value at kinases [2] (RET(M918T)) worked out at 95 % Ctrl. Besides, at kinases [3] (ABL1(H396P)-nonphosphorylated), the “% Ctrl, ABL1(H396P)-nonphosphorylated” value is given as 64 % Ctrl. Besides, the “% Ctrl, ABL1(H396P)-phosphorylated” value at kinases [3] (ABL1(H396P)-phosphorylated) is 89 % Ctrl. The “% Ctrl, FLT3(R834Q)” value on kinases [4] (FLT3(R834Q)) was 85 % Ctrl. The “% Ctrl, EGFR(G719C)” value on kinases [5] (EGFR(G719C)) amounted to 92 % Ctrl. Besides, on kinases [6] (ABL1-nonphosphorylated), the “% Ctrl, ABL1-nonphosphorylated” value is listed as 53 % Ctrl. Besides, the “% Ctrl, ABL1-phosphorylated” value on kinases [6] (ABL1-phosphorylated) stood at 90 % Ctrl. The “% Ctrl, ABL1(F317L)-nonphosphorylated” value at kinases [7] (ABL1(F317L)-nonphosphorylated) was found to be 63 % Ctrl. In addition, on kinases [7] (ABL1(F317L)-phosphorylated), the “% Ctrl, ABL1(F317L)-phosphorylated” value stood at 90 % Ctrl. Besides, the “% Ctrl, KIT(L576P)” value at kinases [8] (KIT(L576P)) is given as 100 % Ctrl.
